In patent publication US10920198B2, “Delta133p53beta and delta133p53gamma isoforms are biomarkers of cancer stem cells” (Centre National de la Recherche Scientifique (CNRS), priority 2015, dated 2021):

B1: Δ133p53γ: human p53 isoform (SEQ ID NO: 3), overexpressed from pMSCVhyg retroviral vector (protein, listed as Homo sapiens)
chain: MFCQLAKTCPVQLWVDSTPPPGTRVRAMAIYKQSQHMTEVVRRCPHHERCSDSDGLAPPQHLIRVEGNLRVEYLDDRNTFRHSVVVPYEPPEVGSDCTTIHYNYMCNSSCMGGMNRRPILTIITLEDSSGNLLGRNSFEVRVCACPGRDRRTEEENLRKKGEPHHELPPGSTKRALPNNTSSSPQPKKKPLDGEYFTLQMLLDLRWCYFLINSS
modifications: SITE (1)..(214) Homo sapiens tumor protein p53, isoform delta133p53gamma (Genbank NP_001119589.1)

Assays:
[1] = system: MCF-7 cells; assay: Mammosphere formation in MCF-7 cells; assay type: cell-based, human; details: for mammosphere formation: MCF-7 cells after transduction, compared to control cells
Description: (§1) For mammosphere formation, 1000 cells/ml (500 cells/well) were plated in Ultra Low Cluster Plate, 24-well, Flat Bottom (Corning Inc) with MammoCult™ Medium enriched with MammoCult™ Proliferation Supplements, hydrocortisone and heparin (Stem Cell Technologies) and cultured for 15 days. For all mammosphere assays, at least three independent experiments for each condition were carried out and repeated 8-12 times. For self-renewal experiments, transfected cells were subjected to a first cycle of mammosphere formation. Upon 15 days of culture the created mammospheres were dissociated and cells were re-plated in identical conditions as for the first plating.

[2] = system: c-Myc, Sox 2, Oct 3/4 and Nanog; assay: Expression of pluripotency/reprogramming factors in MCF-7 cells (RT-qPCR, western blot); assay type: cell-based, human; details: for c-Myc expression / expression of Oct 3/4, Nanog and Sox 2: MCF-7 cells after transduction, mRNA and/or protein
Source text: (§2) The following antibodies were used for immunoblotting: anti-c-Myc (9E10 mouse hybridoma clone), -Nanog (sc-81961, Santa Cruz Biotechnology), -Oct 3/4 (sc-8630, Santa Cruz Biotechnology), -Sox 2 (sc-17320, Santa Cruz Biotechnology), -p53 (DO-1; sc-126 Santa Cruz Biotechnology), -p53 Sapu (Vojtesek et al. 1995), -α-tubulin (clone DM1A, Sigma-Aldrich), -β-actin (clone AC-74 Sigma-Aldrich), -p21 (sc-397 Santa Cruz Biotechnology) and -Flag (clone M2; Sigma-Aldrich). Secondary HRP-conjugated antibodies were from GE Healthcare. For luminescence quantification, cells were serially diluted and incubated with 0.5 mM D-luciferin (Sigma). Luminescence was quantified with a Polarstar Omega instrument (BMG LABTECH).
(§3) Total RNA was extracted (Qiagen) and reverse transcription (RT) was performed with 1-5 μg of total RNA using the SuperScript® III Reverse Transcriptase (Life Technologies) at 50° C. Levels of different mRNAs were quantified by real-time qPCR on a LightCycler480 apparatus (Roche). Briefly, 20 ng cDNA was amplified using 0.168 μM of each primer, 0.2 μM of probe (Table 4) and 1× LightCycler® 480 Probes Master Mix (Roche) for the p53 isoforms, or commercially available primers (Qiagen) and 1× LightCycler® 480 Sybr Green Master Mix (Roche) for the other genes. Data were normalized to the internal standard TBP. The different primers used and their corresponding sequences have been previously described (Bourdon et al., 2005). For each single-well amplification reaction, a threshold cycle (Ct) was calculated by using the LightCycler480 program (Roche) in the exponential phase of amplification. Relative changes in gene expression were determined using the 2ΔΔCt method and reported relative to a control. All quantification studies were performed with at least three independent experiments, repeated twice, for each condition. Data are presented as the arithmetic mean±SEM.

[3] = system: MDA-MB-231 C3LND cells; assay: Mammosphere formation in MDA-MB-231 C3LND cells; assay type: cell-based, human; details: C3LND cells after transduction
Description: as §1

[4] = system: c-Myc, Oct 3/4, Nanog and Sox 2; assay: RT-qPCR of pluripotency/reprogramming factors in MDA-MB-231 C3LND cells; assay type: cell-based, human; details: C3LND cells after transduction
Description: as §3

[5] = system: SW480 colon carcinoma cells; assay: Colosphere formation in SW480 colon carcinoma cells; assay type: cell-based, human; details: compared to control shLuc
Description: as §1
The same protocol has been used with human colon carcinoma cell line SW480.

[6] = system: MDA-MB-231 C3LND cells; assay: Flow cytometry of CD44/CD24 double labeling in MDA-MB-231 C3LND cells; assay type: cell-based, human; details: C3LND cells after transduction
Description: (§4) Single cell suspensions were labeled on ice with CD24-FITC, CD44-PE and their respective isotype controls (BioLegend) at the dilutions indicated by the manufacturer in Phosphate Buffered Saline (PBS) with 10% FBS for 30 min. Cells were then washed once with PBS and re-suspended in PBS/10% FBS. All samples were analyzed on a CyAn analyzer ([…] Coulter, Inc) using Sytox Blue (Life Technologies) to monitor cell viability.

[7] = system: C3LND cancer cells; assay: Distant metastasis after intracardiac injection of C3LND cells in athymic mice (bioluminescence); assay type: in vivo; details: transduced C3LND cells, compared to control cells
Description: All in vivo experiments were performed in compliance with the French regulations and ethical guidelines for experimental animal studies in an accredited establishment (Agreement No. C34-172-27). 2.10^6 control or Sh3-treated C3LND cancer cells were grafted in 6 week-old female athymic mice (Harlan, Le Malourlet, France) by intracardiac injection (n=5-7/group). Bioluminescence detection was used to monitor tumor growth and distal metastasis formation in head and legs. Regions of interest (ROI) were delineated around the tumor sites and the total flux (ph/s) in the ROI was measured.

[8] = system: Δ133p53 (α, β and γ) isoforms; assay: Expression of Δ133p53 isoforms in MCF-7 cells (RT-qPCR, western blot); assay type: cell-based, human; details: MCF-7 cells after transduction; RT-qPCR
Source text: as §2
Total RNA was extracted (Qiagen) and reverse transcription (RT) was performed with 1-5 μg of total RNA using the SuperScript® III Reverse Transcriptase (Life Technologies) at 50° C. Levels of different mRNAs were quantified by real-time qPCR on a LightCycler480 apparatus (Roche). […] For each single-well amplification reaction, a threshold cycle (Ct) was calculated by using the LightCycler480 program (Roche) in the exponential phase of amplification. Relative changes in gene expression were determined using the 2ΔΔCt method and reported relative to a control. All quantification studies were performed with at least three independent experiments, repeated twice, for each condition. […]

[9] = system: MCF-7 cells; assay: Flow cytometry of CD44/CD24 double labeling in MCF-7 cells; assay type: cell-based, human; details: MCF-7 cells after transduction
Description: as §4

[10] = system: MDA-MB-231 D3H2LN cells; assay: Mammosphere formation in MDA-MB-231 D3H2LN cells; assay type: cell-based, human; details: overexpression
Description: as §1

[11] = system: c-Myc, Oct 3/4, Nanog and Sox 2; assay: Expression of pluripotency/reprogramming factors in MDA-MB-231 D3H2LN cells (RT-qPCR, western blot); assay type: cell-based, human; details: D3H2LN cells, overexpression
Description: The human breast cancer cell lines MCF-7, MDA-MB 231 D3H2LN and C3LND were grown in MEM supplemented with 10% FCS, sodium pyruvate and glutamine. Following viral infection, cells were used after 24-48 h or subjected to selection with 2 μg/ml puromycin (InvivoGen) or 300 μg/ml hygromycin B (Invitrogen) for two days. Etoposide treatment was performed with final doses of 12.5, 25 and 50 ng/ml for 16 h or 50 ng/ml/day for 7 days.
as §2, §3

Row | Molecule | mammosphere formation [1] | c-Myc expression [2] | expression of Oct 3/4, Nanog and Sox 2 [2] | further results
1 | Sh5: shRNA, 5′-GGACCAGACCAGCTTTCA-3′ (SEQ ID NO: 16); targets the 3′ end of the β isoforms (target site or template, no part of the molecule; short hairpin RNA, only the targeted sequence is given, further chemistry not given here) | significantly reduced |  |  | 
2 | Sh1: shRNA, 5′-GACTCCAGTGGTAATCTAC-3′ (SEQ ID NO: 13); knocks down all p53 isoforms (target site or template, no part of the molecule; short hairpin RNA, only the targeted sequence is given, further chemistry not given here) | significant reduction | no effect | no effect | 
3 | Sh3: shRNA, 5′-GGAGGTGCTTACACATGTT-3′ (SEQ ID NO: 14); targets the 5′ UTR of the Δ133 isoforms (α, β and γ) (target site or template, no part of the molecule; short hairpin RNA, only the targeted sequence is given, further chemistry not given here) | significantly reduced | not affected | significantly down-regulated | sphere formation [3]: significant reduction; Oct 3/4, Nanog and Sox 2 expression [4]: marked decrease; c-Myc level [4]: small increase; colospheres formation [5]: significantly reduced; Oct 3/4, Nanog and Sox 2 expression ([2]; MCF-7 cells, both etoposide treated and untreated): reduced; proportion of CD44+/CD24− cells [6]: decreased; metastasis to distant sites [7]: less prone to metastasize to distant sites
4 | Sh6: shRNA, 5′-GTGAGCGCTTCGAGATGTT-3′ (SEQ ID NO: 19); targets the 3′ end of the α isoforms (target site or template, no part of the molecule; short hairpin RNA, only the targeted sequence is given, further chemistry not given here) | did not affect |  |  | 
5 | Sh4: shRNA, 5′-CTTGTGCCCTGACTTTCAA-3′ (SEQ ID NO: 15); targets the 5′ UTR of the Δ133 isoforms (α, β and γ) (target site or template, no part of the molecule; short hairpin RNA, only the targeted sequence is given, further chemistry not given here) | significantly reduced | not affected | significantly down-regulated | 
6 | Sh2: shRNA, 5′-GTCCAGATGAAGCTCCCAGAA-3′ (SEQ ID NO: 18); targets the long TAp53 and Δ40p53 isoforms (target site or template, no part of the molecule; short hairpin RNA, only the targeted sequence is given, further chemistry not given here) | no effect | but not of c-Myc | increased expression | expression of the Δ133 isoforms [8]: increased; proportion of CD44+/CD24− cells [9]: not affected
7 | Δ133p53β: human p53 isoform (SEQ ID NO: 1), overexpressed from pMSCVhyg retroviral vector | significantly promoted | but not of c-Myc | significant increase | Oct 3/4, Nanog and Sox 2 expression [4]: increased; mammosphere formation [10]: significant increase; Oct 3/4, Nanog and Sox 2 expression [11]: significant increase; c-Myc level [11]: not affected; mammosphere formation after harvesting and re-plating of primary mammospheres ([1]; MCF-7 cells overexpressing the isoform, self-renewal): higher
8 | B1 | milder effect |  |  | 
